Reference: patent EP0760362B1, “DIAMINOMETHYLIDENE DERIVATIVE” (NISSHIN SEIFUN GROUP INC., priority 1994, dated 1995)

System: longitudinal muscle sample (including myenteric plexus) prepared from the ileum
Experiment: Acetylcholine-release promoting action: contraction of electrically stimulated ileal longitudinal muscle in Magnus' tube
Design: species or system guinea pig
Conditions: increase ratio in contraction by electrical stimulation, isometrically recorded
Procedure: Acetylcholine-release promoting action of the present compounds in the gastrointestinal tract was investigated according to the following procedure. A longitudinal muscle sample (including myenteric plexus) was prepared from the ileum excised from guinea pig and suspended in Magnus' tube. This sample was perfused in a physiological salt solution and stimulated by the electric current via platinum electrodes. […] This contraction was isometrically recorded. Accordingly, the drug capable of accelerating the release of acetylcholine could enhance the contraction caused by electric stimulation only. Evaluation of the compounds was represented in terms of increase ratio in contraction by electrical stimulation. The tested compounds are shown in terms of the numbers of the corresponding Examples.

Row | SMILES | Contraction increase rate (%) (10^-5M) | Contraction increase rate (%) (10^-7M)
1 | N#CC(C#N)=C(NCc1ccccc1)NCC1CN(Cc2ccc(F)cc2)CCO1 (centres unmarked) [Example 1, 2-Benzylamino-2-[4-(p-fluorobenzyl)-2-morpholinylmethylamino]-1,1-ethylenedicarbonitrile] | 12.3% | 3.9%
2 | CCOC(=O)C(C#N)=C(NCC1CN(Cc2ccc(F)cc2)CCO1)Nc1ccc(OC)cc1 (centres unmarked) [Example 10] | 11.8% | 9.1%
3 | CCOC(=O)C(C#N)=C(NCC1CN(Cc2ccc(F)cc2)CCO1)Nc1ccccc1 (centres unmarked) [Example 7, Ethyl 3-[4-(p-fluorobenzyl)-2-morpholinylmethylamino]-3-phenylamino-2-cyanoacrylate] | – | 0.7%
4 | CCOC(=O)C(C#N)=C(NCC1CN(Cc2ccc(F)cc2)CCO1)NC1CCCCC1 (centres unmarked) [Example 9, Ethyl 3-cyclohexylamino-3-[4-(p-fluorobenzyl)-2-morpholinylmethylamino]-2-cyanoacrylate] | 31.9% | 8.7%
5 | CCOC(=O)C(C#N)=C(NCCOCCNCc1ccc(F)cc1)NC1CCCCC1 [Example 12, Ethyl 3-cyclohexylamino-3-[7-(p-fluorophenyl)-6-aza-3-oxaheptylamino]-2-cyanoacrylate] | 7.9% | 0.8%
6 | CNC(NC1CC2COCC(C1)N2Cc1ccc(F)cc1)=C(C#N)C#N (stereo not drawn) [Example 15, 2-[endo-9-(p-Fluorobenzyl)-9-aza-3-oxabicyclo[3.3.1]non-7-ylamino]-2-methylamino-1,1-ethylenedicarbonitrile] | – | 3.9%
7 | CC(C)CNC(NCC1CN(Cc2ccc(F)cc2)CCO1)=C(C#N)C#N (centres unmarked) [Example 5, 2-[4-(p-Fluorobenzyl)-2-morpholinylmethylamino]-2-isobutylamino-1,1-ethylenedicarbonitrile] | 4.9% | –
8 | CNC(=C[N+](=O)[O-])NC1CC2COCC(C1)N2Cc1ccc(F)cc1 (stereo not drawn) [Example 17, N-[endo-9-(p-Fluorobenzyl)-9-aza-3-oxabicyclo[3.3.1]non-7-yl]-N'-methyl-2-nitrovinylidene-1,1-diamine] | 5.7% | 3.2%
9 | CNC(=O)NC1CC2COCC(C1)N2Cc1ccc(F)cc1 (stereo not drawn) [Example 20, 1-[endo-9-(p-Fluorobenzyl)-9-aza-3-oxabicyclo[3.3.1]non-7-yl]-3-methylurea] | – | 4.2%
10 | N#CC(C#N)=C(NCc1ccc(F)cc1)NCC1CN(Cc2ccc(F)cc2)CCO1 (centres unmarked) [Example 13, 2-(p-Fluorobenzylamino)-2-[4-(p-fluorobenzyl)-2-morpholinylmethylamino]-1,1-ethylenedicarbonitrile] | 15.0% | 4.9%
11 | CNC(=O)NCC1CN(Cc2ccc(F)cc2)CCO1 (centres unmarked) [Example 19, 1-[4-(p-Fluorobenzyl)-2-morpholinylmethyl]-3-methylurea] | – | 9.8%
12 | CCOC(=O)C(C#N)=C(NCC(C)C)NCC1CN(Cc2ccc(F)cc2)CCO1 (centres unmarked) [Example 8, Ethyl 3-[4-(p-fluorobenzyl)-2-morpholinylmethylamino]-3-isobutylamino-2-cyanoacrylate] | 32.4% | 8.5%
13 | N#CC(C#N)=C(NCC1CN(Cc2ccc(F)cc2)CCO1)NC1CCCCC1 (centres unmarked) [Example 2, 2-Cyclohexylamino-2-[4-(p-fluorobenzyl)-2-morpholinylmethylamino]-1,1-ethylenedicarbonitrile] | 5.3% | –
14 | CCOC(=O)C(C#N)=C(NCc1ccccc1)NCC1CN(Cc2ccc(F)cc2)CCO1 (centres unmarked) [Example 6, Ethyl 3-benzylamino-3-[4-(p-fluorobenzyl)-2-morpholinylmethylamino]-2-cyanoacrylate] | 20.3% | 3.0%
15 | CNC(NC1CC2COCC(C1)N2CCCOc1ccc(F)cc1)=C(C#N)C#N (stereo not drawn) [Example 16, 2-[endo-9-[3-(p-Fluorophenoxy)propyl]-9-aza-3-oxabicyclo-[3.3.1]non-7-ylamino]-2-methylamino-1,1-ethylenedicarbonitrile] | – | 3.1%
